“Also recorded” adds a separate entry of the source.
How the values were obtained:
CD34+ CML blasts = assay: Colony formation (CFU) of CD34+ blasts from bone marrow of CML patients; type: cell-based; settings: for total colony forming units (CFU): combination ICG-001 and imatinib vs control or either drug alone
[1] = test system: K562 imatinib resistant cells; assay: Cell proliferation/viability of K562 imatinib resistant cells, Imatinib mesylate +/- ICG-001; type: cell-based; settings: in combination with Imatinib mesylate
Description: (§1) MDR transporters are believed to play important roles in protecting cancer stem cells from chemotherapy (Dean et al, Nat. Rev. Cancer 5, 275, 2005). To further study this phenomenon, a series of experiments was performed.

MDR-1 [2] = assay: MDR-1 protein expression in MES-SA/Dx5 cells (immunofluorescence, immunoblotting); type: cell-based, human; settings: immunofluorescence and immunoblotting, dose dependent
From the text: (§2) To investigate differential coactivator usage for the transcriptional regulation of the MDR-1 gene in MES-SA cells, the chemogenomic tool ICG-001 was used (Emami et al. 2004).

MDR-1 [3] = assay: MDR-1/luciferase reporter activity in MES-SA/Dx5 cells; type: cell-based, human; settings: read-out: IC50, reduction of MDR-1 luciferase activity
From the text: as §2

IGROV-1/CP = assay: Colony inhibition assay, IGROV-1/CP; type: cell-based; settings: 80 cells/well
MES-SA/Dx5 cells = assay: Cell proliferation/viability of MES-SA/Dx5 cells, Doxorubicin +/- ICG-001; type: cell-based, human; settings: in combination with Doxorubicin
Description: as §1

MDR-1 promoter = assay: ChIP assay of coactivator occupancy of the MDR-1 promoter in MES-SA/Dx5 cells; type: cell-based, human
From the text: Similar ICG-001 induced p300 recruitment at the survivin promoter has been previously observed, which was associated with recruitment of proteins associated with transcriptional repression (i.e., HDAC6 and PML) (H Ma et al. Oncogene 2005). A proposed non-binding mechanism is repressive transcriptional apparatus recruitment to the MDR-1 promoter by p300.

CBP-β-catenin = biological target: T1, CBP-β-catenin (Homo sapiens, UniProt Q92793); assay: TOPFlash reporter system in SW480 cells (CBP-β-catenin binding); type: cell-based; settings: increasing concentrations
T1 construct: tested using the TOPFlash reporter system in SW480 cells; endogenous in cells; host or cells: SW480 cells
T1 sequence (Q92793 whole entry): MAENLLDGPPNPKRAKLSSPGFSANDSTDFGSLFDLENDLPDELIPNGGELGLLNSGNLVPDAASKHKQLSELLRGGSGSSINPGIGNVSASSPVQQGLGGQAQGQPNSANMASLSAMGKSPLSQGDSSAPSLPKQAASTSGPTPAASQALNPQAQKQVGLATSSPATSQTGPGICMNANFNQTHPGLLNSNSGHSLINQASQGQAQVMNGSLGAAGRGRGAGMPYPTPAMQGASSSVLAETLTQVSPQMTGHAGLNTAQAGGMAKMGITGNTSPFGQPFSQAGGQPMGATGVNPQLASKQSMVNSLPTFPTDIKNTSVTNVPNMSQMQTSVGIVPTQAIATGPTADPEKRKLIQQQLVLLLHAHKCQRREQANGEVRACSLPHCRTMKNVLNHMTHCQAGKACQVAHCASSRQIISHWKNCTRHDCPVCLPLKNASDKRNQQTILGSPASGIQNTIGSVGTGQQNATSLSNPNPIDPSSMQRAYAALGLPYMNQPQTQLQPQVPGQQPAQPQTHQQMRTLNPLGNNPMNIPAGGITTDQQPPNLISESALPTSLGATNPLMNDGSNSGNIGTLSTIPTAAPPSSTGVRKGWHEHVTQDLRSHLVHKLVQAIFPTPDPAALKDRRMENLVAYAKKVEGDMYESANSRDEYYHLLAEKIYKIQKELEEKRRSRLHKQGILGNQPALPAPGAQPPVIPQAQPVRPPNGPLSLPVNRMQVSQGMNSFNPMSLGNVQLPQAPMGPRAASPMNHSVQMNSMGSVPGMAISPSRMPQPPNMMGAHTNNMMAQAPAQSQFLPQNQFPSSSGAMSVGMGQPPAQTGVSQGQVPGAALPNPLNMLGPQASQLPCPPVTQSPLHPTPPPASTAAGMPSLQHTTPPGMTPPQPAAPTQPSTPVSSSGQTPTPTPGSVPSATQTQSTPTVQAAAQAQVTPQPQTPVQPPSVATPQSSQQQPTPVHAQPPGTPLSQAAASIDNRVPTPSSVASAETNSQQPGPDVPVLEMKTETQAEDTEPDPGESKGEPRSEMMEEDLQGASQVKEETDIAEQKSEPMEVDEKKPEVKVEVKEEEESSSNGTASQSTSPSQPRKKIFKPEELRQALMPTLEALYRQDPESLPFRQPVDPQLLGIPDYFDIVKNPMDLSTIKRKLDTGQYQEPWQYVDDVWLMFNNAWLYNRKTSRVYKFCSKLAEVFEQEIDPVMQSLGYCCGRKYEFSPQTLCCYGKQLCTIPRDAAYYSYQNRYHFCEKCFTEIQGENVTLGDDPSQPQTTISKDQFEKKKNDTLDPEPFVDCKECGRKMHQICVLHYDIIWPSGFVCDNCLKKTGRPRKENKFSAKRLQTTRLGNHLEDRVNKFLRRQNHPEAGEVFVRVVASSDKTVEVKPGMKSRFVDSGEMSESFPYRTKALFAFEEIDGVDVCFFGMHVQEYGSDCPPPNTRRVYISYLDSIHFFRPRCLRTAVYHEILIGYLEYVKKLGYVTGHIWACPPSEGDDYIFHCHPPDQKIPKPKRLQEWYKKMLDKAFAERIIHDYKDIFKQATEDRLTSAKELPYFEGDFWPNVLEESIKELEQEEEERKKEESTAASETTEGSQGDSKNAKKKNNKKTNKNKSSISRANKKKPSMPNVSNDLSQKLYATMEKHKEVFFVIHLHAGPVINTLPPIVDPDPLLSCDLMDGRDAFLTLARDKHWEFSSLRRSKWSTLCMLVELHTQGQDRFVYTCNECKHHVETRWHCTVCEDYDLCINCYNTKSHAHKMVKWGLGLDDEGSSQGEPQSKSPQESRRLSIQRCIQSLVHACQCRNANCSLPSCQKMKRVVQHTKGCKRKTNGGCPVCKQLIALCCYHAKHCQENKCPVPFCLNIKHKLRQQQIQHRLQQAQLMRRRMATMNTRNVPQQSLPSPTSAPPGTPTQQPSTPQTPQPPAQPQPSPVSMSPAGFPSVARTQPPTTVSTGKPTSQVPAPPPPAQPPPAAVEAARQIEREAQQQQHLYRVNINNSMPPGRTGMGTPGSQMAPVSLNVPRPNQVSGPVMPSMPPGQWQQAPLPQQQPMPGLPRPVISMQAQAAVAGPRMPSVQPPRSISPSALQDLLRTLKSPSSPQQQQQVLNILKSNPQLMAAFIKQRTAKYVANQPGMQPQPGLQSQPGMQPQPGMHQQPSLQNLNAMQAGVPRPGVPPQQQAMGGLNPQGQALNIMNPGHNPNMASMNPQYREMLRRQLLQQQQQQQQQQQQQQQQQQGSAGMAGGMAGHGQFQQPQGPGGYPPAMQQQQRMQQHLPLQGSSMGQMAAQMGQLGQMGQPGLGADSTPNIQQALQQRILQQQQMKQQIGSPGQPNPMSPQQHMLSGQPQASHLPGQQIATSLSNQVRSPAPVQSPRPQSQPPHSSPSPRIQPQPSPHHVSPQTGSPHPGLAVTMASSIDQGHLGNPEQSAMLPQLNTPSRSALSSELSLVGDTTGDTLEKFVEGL
Description: The effect of several compounds on CBP-β-catenin binding was tested using the TOPFlash reporter system in SW480 cells.

B16 = assay: Colony inhibition assay, B16 melanoma; type: cell-based, mouse; settings: B16, 80 cells/well
Description: (§3) Colony inhibition assays were performed, in which plated cells from A2780, CP70, IGROV-1 and B16 cells were exposed to doses of ICG-001 within the range of 0.625 to 10 μM. An exemplary experiment is illustrated in Table 3.
(§4) Table 4 presents data on the plating efficiencies of cultured cells from A2780, CP70, IGROV-1 and B16 in control wells as well as in wells exposed to ICG-001.

IGROV-1 = assay: Colony inhibition assay, IGROV-1; type: cell-based; settings: IGROV-1, 80 cells/well
Description: as §3, §4
(§5) The cells were tested at range of concentrations of ICG-001 between 0.625 and 10 μM and at cisplatin concentrations between 1.25 to 20 μM. All three ovarian cancer lines tested (A2780, CP70 and IGROV-1) were more sensitive to ICG-001 than to cisplatin. […] The cisplatin-sensitive lines, IGROV-1 and A2780, had similar sensitivity to ICG-001 as to cisplatin (FIGS. 23A and B).

MDR-1 [4] = assay: MDR-1/luciferase activity in isogenic HCT116 cell lines; type: cell-based
From the text: To further confirm the importance of the role of nuclear β-catenin in driving MDR-1 expression, isogenic HCT-116 cell lines were utilized (Waldmann 2002).
MDR-1 transcriptional regulation in the isogenic HCT116 cell lines was also investigated. […] Transfection of p300 decreased MDR-1/luciferase activity below control levels in all 3 cell lines (FIG. 17A).

normal CD34+ cells = assay: Effect on normal CD34+ hematopoietic cells (cellularity, colony formation); type: cell-based
From the text: This is the result of the emergence of leukemic drug resistant clones associated with increased nuclear β-catenin levels, a hallmark of increased TCF/β-catenin transcription (Weissman NEJM 2003). […] In sharp contrast, the control colonies were large and compact.

K562 cells = assay: Differentiation and caspase activation in K562 cells; type: cell-based
A2780 = assay: Colony inhibition assay, A2780; type: cell-based; settings: for Average plating efficiency: A2780, 80 cells/well
Description: as §3, §4, §5

CP70 = assay: Colony inhibition assay, CP70; type: cell-based; settings: for Average plating efficiency: CP70, 80 cells/well
Description: as §3, §4, §5

caspase3/7 = assay: Caspase3/7 activation in MES-SA/Dx5 cells; type: cell-based, human; settings: added to cells treated with 1 mg/ml or 5 mg/ml of Doxorubicin
Description: as §1

For `O=C1[C@H](Cc2ccc(O)cc2)N2C(=O)CCN(C(=O)NCc3ccccc3)[C@H]2CN1Cc1cccc2ccccc12` [ICG-001], the “total colony forming units (CFU)” value (CD34+ CML blasts) was “most significant reduction”, the “total colony forming units (CFU)” value (CD34+ CML blasts; listed as IGC-001) was “significant additive effect” and the “decrease of cell proliferation/viability, combination vs either agent alone” value [1] was “significantly more effective”. The “level of MDR-1 protein expression” value (MDR-1 [2]) was “significantly reduced”, the IC50 (MDR-1 [3]) was ~16 µM and the Average plating efficiency (IGROV-1/CP; 0.625 μM) was 59%. It also gave an Average plating efficiency (IGROV-1/CP; 1.25 μM) of 25%, an Average plating efficiency (IGROV-1/CP; 2.5 μM) of 13% and an Average plating efficiency (IGROV-1/CP; 5 μM) of 6%. For the same molecule, the Average plating efficiency (IGROV-1/CP; 10 μM) was 0%, the “decrease of cell proliferation/viability, combination vs either agent alone” value (MES-SA/Dx5 cells) was “significantly more effective” and the “occupancy of the MDR-1 promoter by CBP” value (MDR-1 promoter) was “blocked in a dose dependent fashion”. For the same molecule, the “occupancy of the MDR-1 promoter by p300” value (MDR-1 promoter; 25 uM ICG-001) was “occupancy increased”, the “effect on CBP-β-catenin binding (TOPFlash reporter)” value (CBP-β-catenin; listed as ICG-100) was “inhibited” and the Average plating efficiency (B16; 0.625 μM) was 24%. The Average plating efficiency (B16; 1.25 μM) was 18%, the Average plating efficiency (B16; 2.5 μM) was 3% and the Average plating efficiency (B16; 5 μM) was 0%. For the same molecule, the Average plating efficiency (B16; 10 μM) was 0%, the Average plating efficiency (IGROV-1; 0.625 μM) was 31% and the Average plating efficiency (IGROV-1; 1.25 μM) was 24%. It also gave an Average plating efficiency (IGROV-1; 2.5 μM) of 8%, an Average plating efficiency (IGROV-1; 5 μM) of 1% and an Average plating efficiency (IGROV-1; 10 μM) of 0%. The MDR-1/luciferase activity (MDR-1 [4]; HCT-116 wild type) was “dose dependently decreased”, the MDR-1/luciferase activity (MDR-1 [4]; Hβ18(ko/*) cell line) was “dose dependently decreased” and the MDR-1/luciferase activity (MDR-1 [4]; Hβ92(wt/ko) cells) was “essentially no further reduction below basal levels”. The “colony formation of normal CD34+ hematopoietic cells” value (normal CD34+ cells) was “did not affect colony formation”, the “total cellularity, CFU-Es and BFU-Es” value (normal CD34+ cells) was “minimal effects” and the “adverse effects on normal CD34+ cells” value (normal CD34+ cells; up to 20 μM) was “did not have significant adverse effects”. For the same molecule, the caspase activation (K562 cells) was “not capase activation”, the differentiation (K562 cells) was “induced differentiation” and the “COLONIES (n = 4) M +/− SD” value (A2780; 0.625 μM ICG-001) was 74 +/− 4.7. The “COLONIES (n = 4) M +/− SD” value (A2780; 1.25 μM ICG-001) was 28 +/− 13.2, the “COLONIES (n = 4) M +/− SD” value (A2780; 2.5 μM ICG-001) was 0.25 +/− 0.5 and the “COLONIES (n = 4) M +/− SD” value (A2780; 5 μM ICG-001) was 0. For the same molecule, the “COLONIES (n = 4) M +/− SD” value (A2780; 10 μM ICG-001) was 0, the Average plating efficiency (A2780; 0.625 μM) was 25% and the Average plating efficiency (A2780; 1.25 μM) was 35%. The Average plating efficiency (A2780; 2.5 μM) was 6%, the Average plating efficiency (A2780; 5 μM) was 0% and the Average plating efficiency (A2780; 10 μM) was 0%. It also gave an Average plating efficiency (CP70; 0.625 μM) of 35%, an Average plating efficiency (CP70; 1.25 μM) of 35% and an Average plating efficiency (CP70; 2.5 μM) of 13%. For the same molecule, the Average plating efficiency (CP70; 5 μM) was 1%, the Average plating efficiency (CP70; 10 μM) was 0% and the inhibition (CP70; cisplatin-resistant line CP70, 5 μM) was > 90%. The caspase3/7 activation (caspase3/7) was “increased caspase3/7 activation significantly”.
For `O=C1[C@H](Cc2ccc(O)cc2)N2C(=O)CCN(C(=O)NCc3ccccc3)[C@H]2CN1Cc1cccc2ccccc12` [PRI-004], the colony formation (CD34+ CML blasts; 500 nM, FIG. 21C legend) was “completely blocks colony formation” and the “effect on CBP-β-catenin binding (TOPFlash reporter)” value (CBP-β-catenin) was “effective; also recorded: inhibited”.
